Active and inactive are the calls of the source.
What was measured:
[1] = A Cell Based Secondary Assay To Explore Cytotoxicity of Compounds that Sensitize Mycobacterium Tuberculosis to Beta-Lactam Antibiotics.; format: functional
[2] = biological target: T1, Eukaryotic translation initiation factor 4H (Homo sapiens, UniProt Q15056); test: inhibitors of translation initiation factor eIF4H – SAR follow-up (AID 435011); format: functional
[3] = biological target: T2, Polyadenylate-binding protein 1 (Homo sapiens, UniProt P11940); test: PABP inhibition in translation initiation, SAR follow-up (AID 435018); format: functional
Hexokinase HKDC1 = biological target: T3, Hexokinase HKDC1 (Homo sapiens, UniProt Q2TB90); test: inhibition of HKDC1 glucose phosphorylation – biochemical, W721R variant, dose response (AID 504729); format: functional
T3 sequence (Q2TB90 whole entry): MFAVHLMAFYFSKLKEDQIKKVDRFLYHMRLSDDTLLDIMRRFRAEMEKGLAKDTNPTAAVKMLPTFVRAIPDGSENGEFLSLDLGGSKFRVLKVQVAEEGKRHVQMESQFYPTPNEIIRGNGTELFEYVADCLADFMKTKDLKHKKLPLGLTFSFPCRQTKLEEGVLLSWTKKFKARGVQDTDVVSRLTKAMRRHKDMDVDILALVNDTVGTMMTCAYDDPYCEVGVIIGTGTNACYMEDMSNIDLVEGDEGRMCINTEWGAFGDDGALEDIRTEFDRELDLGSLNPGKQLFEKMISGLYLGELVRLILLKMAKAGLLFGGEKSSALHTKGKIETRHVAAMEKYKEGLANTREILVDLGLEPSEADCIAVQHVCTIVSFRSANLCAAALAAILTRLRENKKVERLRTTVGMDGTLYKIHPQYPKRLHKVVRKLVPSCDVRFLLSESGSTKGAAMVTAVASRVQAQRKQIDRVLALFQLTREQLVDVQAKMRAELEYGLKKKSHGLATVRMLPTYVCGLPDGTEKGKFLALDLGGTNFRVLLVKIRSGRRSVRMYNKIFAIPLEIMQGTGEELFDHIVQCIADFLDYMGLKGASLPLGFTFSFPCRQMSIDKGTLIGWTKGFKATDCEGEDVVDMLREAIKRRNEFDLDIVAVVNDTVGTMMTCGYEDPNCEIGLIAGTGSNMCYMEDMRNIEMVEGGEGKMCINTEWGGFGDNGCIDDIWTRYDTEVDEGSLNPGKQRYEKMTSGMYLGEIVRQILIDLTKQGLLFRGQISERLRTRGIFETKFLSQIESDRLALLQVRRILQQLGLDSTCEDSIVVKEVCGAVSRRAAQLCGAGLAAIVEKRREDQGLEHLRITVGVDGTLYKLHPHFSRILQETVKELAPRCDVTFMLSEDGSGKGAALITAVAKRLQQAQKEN

[4] = biological target: T4, Voltage-gated N-type calcium channel alpha-1B subunit/Amyloid beta A4 precursor protein-binding family A member 1 (Homo sapiens, UniProt Q00975+Q02410); format: protein assay
[5] = biological target: T4, Voltage-gated N-type calcium channel alpha-1B subunit/Amyloid beta A4 precursor protein-binding family A member 1; format: protein assay; remark: listed apart in the source
Estrogen receptor beta = Estrogen receptor beta (Homo sapiens, UniProt Q92731); test: blockers of SRC-3 recruitment to ERβ – biochemical, ELISA, streptavidin-HRP readout, orthogonal assay, confirmation (AID 1060)
[6] = biological target: T4, Voltage-gated N-type calcium channel alpha-1B subunit/Amyloid beta A4 precursor protein-binding family A member 1; test: disruptors of Mint-PDZ/N-type channel peptide interaction – biochemical, HTRF, SAR follow-up (AID 2489); format: functional
[7] = biological target: Glutathione-S-transferase (Schistosoma japonicum, UniProt Q26513); test: GST-antibody interaction or FRET quenching – biochemical, TR-FRET, artefact control for Vif-APOBEC3G degradation inhibitor project, dose response (AID 1117362); format: functional
[8] = luciferase reporter signal suppression in cells – H4 neuroglioma cells, luminescence, dose response (AID 1990); format: functional, cell-based
[9] = luciferase reporter signal reduction – luminescence, H4-C neuroglioblastoma cells, dose response (AID 2458); format: functional, cell-based;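 further: H4 neuroglioblastoma cells stably carrying a luciferase reporter gene fusion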
cells = format: functional, cell-based
[10] = Luminescence Cell-Based Dose Response HTS to Identify Inhibitors of 5'UTR Stem-Loop Driven Prion Protein mRNA Translation in H4 Neuroglioblastoma Cells. [Related pubchem assays: 1827 (Project Summary), 1813 (Primary HTS)]; format: functional
[11] = alpha-synuclein stem-loop luciferase translation blockers – H4 neuroglioma cells, luminescence, confirmation (AID 1988); format: functional, cell-based
[12] = alpha-synuclein stem-loop translation blockers – luminescence, H4 neuroglioblastoma cells, dose confirmation, confirmation (AID 2454); format: functional, cell-based;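 further: H4 neuroglioblastoma cells carrying an alpha-synuclein 5'UTR luciferase reporter; potency for inhibition of the luciferase signal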
[13] = biological target: T1, Eukaryotic translation initiation factor 4H; test: eIF4H binding inhibition – biochemical, uHTS, fluorescence polarization, translation initiation inhibitor project, primary screen (AID 2012)
[14] = biological target: T2, Polyadenylate-binding protein 1; test: blockers of PABP interaction with poly(A) – biochemical, fluorescence polarization, […] (AID 2014)
[15] = biological target: DNA dC->dU-editing enzyme APOBEC-3A (Homo sapiens, UniProt P31941); test: Dose Response confirmation of small molecule APOBEC3A DNA Deaminase Inhibitors via a fluorescence-based single-stranded DNA deaminase assay. [Related pubchem assays (depositor defined):AID493011, AID493024]; format: functional
[16] = biological target: DNA dC->dU-editing enzyme APOBEC-3G (Homo sapiens, UniProt Q9HC16); format: functional;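 further: Dose-response counterscreen measuring inhibition of APOBEC3G DNA deaminase activity, run while confirming APOBEC3A inhibitors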
[17] = biological target: T5, Carboxy-terminal domain RNA polymerase II polypeptide A small phosphatase 1 (Homo sapiens, UniProt Q9GZU7); test: CTDSP1 inhibitors, concentration-response, biochemical, absorbance readout, ultra-high-throughput screen actives (AID 540297); format: functional
T5 sequence (Q9GZU7 whole entry): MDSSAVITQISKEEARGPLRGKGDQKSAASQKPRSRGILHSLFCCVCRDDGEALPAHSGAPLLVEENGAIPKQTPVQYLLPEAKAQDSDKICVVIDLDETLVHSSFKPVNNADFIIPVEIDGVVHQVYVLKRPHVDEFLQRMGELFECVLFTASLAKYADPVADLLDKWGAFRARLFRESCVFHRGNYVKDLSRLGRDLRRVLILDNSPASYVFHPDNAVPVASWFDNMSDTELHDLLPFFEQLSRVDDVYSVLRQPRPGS

[18] = biological target: T6, Mannose-6-phosphate isomerase (Homo sapiens, UniProt P34949); test: MPI enzyme activity inhibition – biochemical, fluorescence intensity, coupled assay, primary screen (AID 1209)
T6 sequence (P34949 whole entry): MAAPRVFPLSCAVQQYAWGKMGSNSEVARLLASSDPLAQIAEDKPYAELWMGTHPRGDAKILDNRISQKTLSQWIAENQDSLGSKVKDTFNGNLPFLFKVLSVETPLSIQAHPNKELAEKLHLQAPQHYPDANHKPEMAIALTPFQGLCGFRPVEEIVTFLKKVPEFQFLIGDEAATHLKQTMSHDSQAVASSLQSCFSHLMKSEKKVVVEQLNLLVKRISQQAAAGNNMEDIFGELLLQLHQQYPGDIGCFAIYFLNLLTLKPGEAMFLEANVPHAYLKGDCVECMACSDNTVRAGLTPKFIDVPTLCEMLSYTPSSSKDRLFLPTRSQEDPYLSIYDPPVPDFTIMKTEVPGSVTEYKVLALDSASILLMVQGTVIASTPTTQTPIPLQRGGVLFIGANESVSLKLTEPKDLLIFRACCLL

[19] = biological target: T7, Heat shock factor protein 1 (Mus musculus, UniProt P38532); test: enhancement of HSF1-driven luciferase signal – cell-based, NIH3T3, luminescence, dose retest, confirmation (AID 435004); format: functional;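 further: stress induced by proteasome inhibitor MG132 added 30 min after compound; luciferase reporter driven by HSF1 response element in NIH3T3 cells; actives raise luminescence as potentiators of the MG132 stress response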
T7 sequence (P38532 whole entry): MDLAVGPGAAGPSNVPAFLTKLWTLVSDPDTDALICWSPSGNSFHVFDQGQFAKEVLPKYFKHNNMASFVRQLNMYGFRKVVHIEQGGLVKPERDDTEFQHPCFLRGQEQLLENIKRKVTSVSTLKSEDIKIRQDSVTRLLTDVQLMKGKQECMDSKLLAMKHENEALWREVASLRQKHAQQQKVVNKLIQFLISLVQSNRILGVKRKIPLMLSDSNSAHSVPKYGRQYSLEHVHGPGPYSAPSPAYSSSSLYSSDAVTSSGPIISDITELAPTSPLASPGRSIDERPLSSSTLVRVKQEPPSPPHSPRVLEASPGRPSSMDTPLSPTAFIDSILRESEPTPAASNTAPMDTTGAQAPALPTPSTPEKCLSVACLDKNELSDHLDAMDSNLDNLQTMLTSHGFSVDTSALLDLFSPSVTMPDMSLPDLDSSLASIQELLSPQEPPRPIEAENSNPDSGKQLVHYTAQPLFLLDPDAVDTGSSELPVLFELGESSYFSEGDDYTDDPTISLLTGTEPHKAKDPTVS

T4 sequence (Q00975 whole entry): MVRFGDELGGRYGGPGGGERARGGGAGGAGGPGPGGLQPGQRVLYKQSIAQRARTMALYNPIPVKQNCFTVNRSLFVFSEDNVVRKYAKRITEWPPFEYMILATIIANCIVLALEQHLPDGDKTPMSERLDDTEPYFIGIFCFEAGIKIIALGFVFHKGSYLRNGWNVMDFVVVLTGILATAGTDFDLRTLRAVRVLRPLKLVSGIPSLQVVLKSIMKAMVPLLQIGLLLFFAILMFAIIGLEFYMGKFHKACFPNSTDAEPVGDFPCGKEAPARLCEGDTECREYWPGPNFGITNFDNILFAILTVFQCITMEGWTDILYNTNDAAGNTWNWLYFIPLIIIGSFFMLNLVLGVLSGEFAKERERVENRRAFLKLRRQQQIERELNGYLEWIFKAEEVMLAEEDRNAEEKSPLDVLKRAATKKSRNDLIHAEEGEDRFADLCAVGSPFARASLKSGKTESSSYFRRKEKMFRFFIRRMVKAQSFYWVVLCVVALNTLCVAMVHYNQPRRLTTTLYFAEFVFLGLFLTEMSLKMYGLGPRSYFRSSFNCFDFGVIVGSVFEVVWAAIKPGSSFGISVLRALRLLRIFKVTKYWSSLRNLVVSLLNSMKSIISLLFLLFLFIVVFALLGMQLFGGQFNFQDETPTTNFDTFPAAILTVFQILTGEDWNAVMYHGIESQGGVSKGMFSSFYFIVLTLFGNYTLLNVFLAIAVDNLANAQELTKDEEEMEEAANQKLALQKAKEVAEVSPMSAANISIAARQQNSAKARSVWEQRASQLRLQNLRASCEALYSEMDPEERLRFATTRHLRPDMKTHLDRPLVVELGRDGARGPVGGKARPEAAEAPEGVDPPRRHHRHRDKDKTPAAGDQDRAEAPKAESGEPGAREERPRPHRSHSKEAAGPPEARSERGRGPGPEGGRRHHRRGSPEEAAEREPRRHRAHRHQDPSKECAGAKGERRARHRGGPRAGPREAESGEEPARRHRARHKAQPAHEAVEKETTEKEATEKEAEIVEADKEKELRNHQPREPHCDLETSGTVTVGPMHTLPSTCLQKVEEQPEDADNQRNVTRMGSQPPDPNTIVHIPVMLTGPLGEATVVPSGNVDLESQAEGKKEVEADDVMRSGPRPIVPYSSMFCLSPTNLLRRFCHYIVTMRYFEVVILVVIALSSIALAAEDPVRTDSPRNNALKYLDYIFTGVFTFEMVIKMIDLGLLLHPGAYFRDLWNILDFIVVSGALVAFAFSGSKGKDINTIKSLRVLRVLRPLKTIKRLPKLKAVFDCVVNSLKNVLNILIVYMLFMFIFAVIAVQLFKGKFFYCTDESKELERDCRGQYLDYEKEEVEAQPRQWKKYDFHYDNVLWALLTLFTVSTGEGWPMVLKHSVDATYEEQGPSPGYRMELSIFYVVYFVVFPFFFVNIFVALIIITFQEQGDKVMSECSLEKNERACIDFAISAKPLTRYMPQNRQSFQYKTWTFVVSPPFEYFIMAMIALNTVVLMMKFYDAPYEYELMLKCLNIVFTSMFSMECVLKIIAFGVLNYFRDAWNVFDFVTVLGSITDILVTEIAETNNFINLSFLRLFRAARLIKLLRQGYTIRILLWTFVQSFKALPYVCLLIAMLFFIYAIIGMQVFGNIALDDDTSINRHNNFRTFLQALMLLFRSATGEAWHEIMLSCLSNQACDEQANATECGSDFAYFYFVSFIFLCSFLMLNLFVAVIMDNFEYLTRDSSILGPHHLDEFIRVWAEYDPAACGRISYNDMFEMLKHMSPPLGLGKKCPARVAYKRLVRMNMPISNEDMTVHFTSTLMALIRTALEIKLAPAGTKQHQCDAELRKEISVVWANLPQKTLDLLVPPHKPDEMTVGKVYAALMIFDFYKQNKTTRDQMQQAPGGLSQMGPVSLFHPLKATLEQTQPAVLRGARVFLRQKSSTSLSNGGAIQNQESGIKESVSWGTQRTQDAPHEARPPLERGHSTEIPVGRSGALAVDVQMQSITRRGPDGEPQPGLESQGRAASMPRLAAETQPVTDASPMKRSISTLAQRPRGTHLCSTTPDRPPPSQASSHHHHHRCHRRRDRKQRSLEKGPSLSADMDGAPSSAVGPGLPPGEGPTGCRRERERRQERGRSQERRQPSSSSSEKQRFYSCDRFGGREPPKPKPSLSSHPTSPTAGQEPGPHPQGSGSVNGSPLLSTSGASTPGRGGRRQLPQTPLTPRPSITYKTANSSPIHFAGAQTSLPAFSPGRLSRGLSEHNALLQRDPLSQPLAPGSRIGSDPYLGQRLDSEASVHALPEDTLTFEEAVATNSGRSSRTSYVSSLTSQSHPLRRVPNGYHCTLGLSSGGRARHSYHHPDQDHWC
T4 sequence (Q02410 whole entry): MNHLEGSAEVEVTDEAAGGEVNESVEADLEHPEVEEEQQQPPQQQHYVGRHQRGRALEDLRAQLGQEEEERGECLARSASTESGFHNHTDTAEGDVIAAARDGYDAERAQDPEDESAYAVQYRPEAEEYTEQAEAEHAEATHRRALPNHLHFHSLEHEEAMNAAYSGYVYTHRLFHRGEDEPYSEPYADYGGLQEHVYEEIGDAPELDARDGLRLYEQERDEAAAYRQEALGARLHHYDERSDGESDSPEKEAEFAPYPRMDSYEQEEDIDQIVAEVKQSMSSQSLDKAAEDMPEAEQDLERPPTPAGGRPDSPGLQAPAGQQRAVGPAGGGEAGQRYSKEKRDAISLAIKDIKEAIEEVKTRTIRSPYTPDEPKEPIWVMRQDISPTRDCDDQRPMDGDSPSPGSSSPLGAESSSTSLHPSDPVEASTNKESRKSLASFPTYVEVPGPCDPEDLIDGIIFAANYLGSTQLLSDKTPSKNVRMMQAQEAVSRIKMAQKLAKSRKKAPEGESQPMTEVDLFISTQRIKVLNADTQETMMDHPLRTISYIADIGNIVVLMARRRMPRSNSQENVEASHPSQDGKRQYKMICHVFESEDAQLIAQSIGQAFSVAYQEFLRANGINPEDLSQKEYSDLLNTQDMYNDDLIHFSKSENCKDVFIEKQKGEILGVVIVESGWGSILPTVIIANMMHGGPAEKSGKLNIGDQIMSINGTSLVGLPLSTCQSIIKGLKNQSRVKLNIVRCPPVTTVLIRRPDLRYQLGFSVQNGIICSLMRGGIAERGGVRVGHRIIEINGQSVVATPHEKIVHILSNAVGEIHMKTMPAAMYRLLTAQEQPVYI
T2 sequence (P11940 whole entry): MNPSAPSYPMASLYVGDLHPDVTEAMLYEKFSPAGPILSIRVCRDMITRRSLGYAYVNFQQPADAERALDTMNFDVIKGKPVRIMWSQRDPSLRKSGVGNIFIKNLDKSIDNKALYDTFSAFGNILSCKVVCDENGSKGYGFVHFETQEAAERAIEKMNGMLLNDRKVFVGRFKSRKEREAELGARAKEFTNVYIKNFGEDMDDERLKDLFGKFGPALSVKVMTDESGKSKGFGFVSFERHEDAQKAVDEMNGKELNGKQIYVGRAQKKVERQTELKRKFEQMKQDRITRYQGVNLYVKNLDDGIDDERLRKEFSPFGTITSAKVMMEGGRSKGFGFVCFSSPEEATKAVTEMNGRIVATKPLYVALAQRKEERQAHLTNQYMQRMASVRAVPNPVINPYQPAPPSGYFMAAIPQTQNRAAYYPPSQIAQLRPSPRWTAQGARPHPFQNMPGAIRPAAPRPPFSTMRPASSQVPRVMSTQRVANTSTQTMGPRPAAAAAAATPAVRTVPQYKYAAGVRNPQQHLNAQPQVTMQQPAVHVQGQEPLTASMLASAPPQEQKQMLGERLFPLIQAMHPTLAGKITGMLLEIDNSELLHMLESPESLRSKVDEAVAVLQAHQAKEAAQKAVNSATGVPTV
Chain of Glutathione-S-transferase (Q26513 whole entry): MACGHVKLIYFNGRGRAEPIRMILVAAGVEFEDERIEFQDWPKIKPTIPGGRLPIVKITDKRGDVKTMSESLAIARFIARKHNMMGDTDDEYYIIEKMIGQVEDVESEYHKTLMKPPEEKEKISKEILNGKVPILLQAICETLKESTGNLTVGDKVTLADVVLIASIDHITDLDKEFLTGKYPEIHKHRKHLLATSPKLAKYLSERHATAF
Chain of DNA dC->dU-editing enzyme APOBEC-3G (Q9HC16 whole entry, the tested form may be a part): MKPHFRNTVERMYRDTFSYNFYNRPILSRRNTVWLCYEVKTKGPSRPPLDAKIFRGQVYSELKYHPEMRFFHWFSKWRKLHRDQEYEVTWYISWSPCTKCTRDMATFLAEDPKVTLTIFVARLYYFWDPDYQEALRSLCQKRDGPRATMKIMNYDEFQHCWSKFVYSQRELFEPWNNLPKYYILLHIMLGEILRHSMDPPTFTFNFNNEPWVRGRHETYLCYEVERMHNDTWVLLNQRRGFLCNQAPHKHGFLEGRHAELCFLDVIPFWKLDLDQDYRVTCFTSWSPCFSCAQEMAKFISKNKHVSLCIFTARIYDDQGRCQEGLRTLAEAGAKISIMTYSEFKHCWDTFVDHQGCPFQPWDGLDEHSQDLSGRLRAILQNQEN
Chain of DNA dC->dU-editing enzyme APOBEC-3A (P31941 whole entry): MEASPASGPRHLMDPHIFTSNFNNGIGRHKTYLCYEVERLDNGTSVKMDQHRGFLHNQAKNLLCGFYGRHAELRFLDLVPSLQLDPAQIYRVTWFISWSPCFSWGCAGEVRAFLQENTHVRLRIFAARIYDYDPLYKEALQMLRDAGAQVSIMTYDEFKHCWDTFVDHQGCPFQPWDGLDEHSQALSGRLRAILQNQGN

With `CCOC(=O)c1c(C)n(-c2ccccc2)c2ccc(OCCN(C)C)cc12` the CC50 [1] was > 40 µM (active).
With `COc1ccc(NC(=O)CSc2ccc(-c3ccco3)nn2)c(OC)c1` the IC50 [2] was 86.5 µM (active), the IC50 [3] was > 100 µM (inactive) and the IC50 (Hexokinase HKDC1) was 5.8 µM (active).
With `O=C(c1ccc2nc(-c3ccco3)c(-c3ccco3)nc2c1)N1CCC2(CC1)OCCO2` the IC50 [4] was 2.45 µM (active), the IC50 [5] was 1.39 µM (active) and the IC50 (Estrogen receptor beta) was 8.97 µM (not active). The IC50 [6] was > 56.8 µM (inactive) and the IC50 [7] was > 100 µM (active).
With `CCOC(=O)c1sc2nc(-c3ccco3)c3c(c2c1N)CC(C)(C)OC3` the IC50 [4] was 9.58 µM (active), the IC50 [5] was 5.26 µM (active) and the IC50 [6] was > 56.8 µM (inactive).
With `C=CCn1c(SCc2ccc(Cl)cc2)nc2c1c(=O)[nH]c(=O)n2C` the EC50 [8] was 29.3 µM (active), the EC50 [9] was > 12 µM (not active) and the EC50 (cells) was > 12 µM (not active). For the same compound, the EC50 [10] was < 0.1 µM (active), the EC50 [11] was > 120 µM (not active) and the EC50 [12] was > 12 µM (not active).
For `COc1ccc(C(CC(=O)N2CCCCC2)c2c(OC)cc(OC)c3c(-c4ccccc4)cc(=O)oc23)cc1` (stereo not given), the IC50 [13] was 7.25 µM (active), the IC50 [14] was 33.4 µM (active) and the IC50 [15] was 10.4 µM (active). The IC50 [16] was 25.9 µM (active) and the IC50 [17] was 4.7 µM (active).
In the case of `Cc1ccc2cccnc2c1NC(=S)NC(=O)c1ccccc1`, the IC50 [18] is reported as > 50 µM (not active) and the EC50 [19] is reported as > 260 µM (inactive).

Reference: ChEMBL document CHEMBL1201862, “PubChem BioAssay data set” (2004)
